10 compounds from ChEMBL document CHEMBL1201862, “PubChem BioAssay data set” (2004) can be followed below.

Each structure is given as a SMILES string.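 Each compound was tested at five concentrations against cells in 96-well plates for 48 hours. Abbreviation: GI50, concentration required for 50% inhibition of growth.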 The source made the active and inactive calls. Rule as the data show it: active = GI50 up to about 1.1 µM and inactive = higher. Where a SMILES comes first, the peptide text is derived from it. The star is where a group is joined. Boc = CC(C)(C)OC(=O)*; OBn = c1ccc(CO*)cc1

Test systems include HCT-15; EKVX; TK-10; OVCAR-5; 786-0; Malme-3M; UACC-257; HT-29; NCI-H460; HCT-116; NCI/ADR-RES; RPMI-8226; OVCAR-8; CCRF-CEM; SK-MEL-2; RXF 393; MDA-MB-231; SK-MEL-5; SNB-19; COLO 205.
Test in all cases: inhibition of tumour cell growth, NCI panel, 48 h

As to `O=P(O)(O)OC1O[C@H](CO)[C@H](O)[C@H](O)[C@H]1O` (stereo partly drawn), the GI50 in the test with HCT-15 was more than 100 µM; in the test with EKVX, > 100 µM (inactive); in the test with TK-10, > 100 µM (inactive); in the test with OVCAR-5, > 100 µM (inactive); in the test with 786-0, > 100 µM (inactive); in the test on Malme-3M it was > 100 µM (inactive). Moreover, the GI50 with UACC-257, in the test on HT-29, in the test on NCI-H460, with HCT-116, in the test with NCI/ADR-RES and in the test with RPMI-8226 was > 100 µM (inactive) throughout. The GI50 in the test on OVCAR-8, with CCRF-CEM, in the test with SK-MEL-2, in the test with RXF 393, with MDA-MB-231 and in the test on SK-MEL-5 was > 100 µM (inactive) throughout. For the same compound, the GI50 in the test on SNB-19 was > 100 µM (inactive).
`CC12CCC(=O)C=C1CCC1C2C(O)CC2(C)C(c3csc(N)n3)CCC12.O=S(=O)(O)c1ccc(Br)cc1` (stereo not drawn): the GI50 in the test on HCT-15 is more than 100 µM; with EKVX, > 100 µM (inactive); in the test on TK-10 it was > 100 µM (inactive); with OVCAR-5, > 100 µM (inactive); with 786-0, > 100 µM (inactive); in the test on Malme-3M, > 100 µM (inactive). For the same compound, the GI50 in the test on UACC-257, with HT-29, with HCT-116, in the test with NCI/ADR-RES, in the test on RPMI-8226 and with OVCAR-8 was > 100 µM (inactive) in each case. Also, the GI50 was < 0.01 µM (active) with CCRF-CEM; > 100 µM (inactive) with SK-MEL-2; > 100 µM (inactive) in the test on RXF 393; > 100 µM (inactive) in the test on COLO 205; > 100 µM (inactive) in the test on MDA-MB-231; > 100 µM (inactive) in the test on SK-MEL-5. Besides, the GI50 in the test with SNB-19 was > 100 µM (inactive).
`O=S1(=O)c2ccccc2C(Nc2ccccc2)N1c1ccccc1` (stereo not drawn): the GI50 with HCT-15 was 48 µM; in the test on EKVX, > 100 µM (inactive); in the test with TK-10, > 100 µM (inactive); in the test on OVCAR-5, > 100 µM (inactive); in the test on 786-0, > 100 µM (inactive); with Malme-3M, > 100 µM (inactive). Further, the GI50 is > 100 µM (inactive) in the test on UACC-257; > 100 µM (inactive) in the test with HT-29; 72.9 µM (inactive) in the test with NCI-H460; > 100 µM (inactive) in the test with HCT-116; 45 µM (inactive) in the test on NCI/ADR-RES; > 100 µM (inactive) with RPMI-8226. For the same compound, the GI50 in the test on OVCAR-8 is > 100 µM (inactive); in the test with CCRF-CEM it was 63.4 µM (inactive); in the test with SK-MEL-2, 98.6 µM (inactive); with RXF 393 it was > 100 µM (inactive); with MDA-MB-231 it was > 100 µM (inactive); in the test with SK-MEL-5, > 100 µM (inactive).
For `CCc1nnc(S)n1/N=C\c1ccc(-c2ccccc2[N+](=O)[O-])o1`, the GI50 in the test on HCT-15 was 30.3 µM; with EKVX, 21.1 µM (inactive); in the test with TK-10, > 100 µM (inactive); in the test on OVCAR-5 it was 50.7 µM (inactive); in the test with 786-0 it was 45.6 µM (inactive); with Malme-3M, 85.5 µM (inactive). The GI50 in the test with UACC-257 was 76.4 µM (inactive); with HT-29, 35.7 µM (inactive); in the test with HCT-116, 32.3 µM (inactive); in the test on NCI/ADR-RES it was 26.3 µM (inactive); in the test with RPMI-8226, 13.2 µM (inactive); with OVCAR-8 it was 33.1 µM (inactive). Moreover, the GI50 with CCRF-CEM was 42.1 µM (inactive); in the test with SK-MEL-2 it was 29.4 µM (inactive); with RXF 393 it was 63.5 µM (inactive); in the test with COLO 205, 29.9 µM (inactive); in the test on MDA-MB-231 it was 47.2 µM (inactive); with SK-MEL-5, 12 µM (inactive). In the test on SNB-19, the GI50 was > 100 µM (inactive).
For `COn1cc(C=O)c2ccccc21`, the GI50 with HCT-15 was more than 70.5 µM; in the test on EKVX it was 23.7 µM (inactive); with TK-10, > 54.3 µM (inactive); in the test on OVCAR-5, > 74.6 µM (inactive); in the test on 786-0, > 67 µM (inactive); in the test with Malme-3M, > 93.8 µM (inactive). In addition, the GI50 in the test with UACC-257 was > 78.9 µM (inactive); in the test with HT-29, > 56.6 µM (inactive); in the test on NCI-H460, 35.1 µM (inactive); with HCT-116, > 59 µM (inactive); with NCI/ADR-RES, > 70.8 µM (inactive); in the test with RPMI-8226, > 68.1 µM (inactive). In addition, the GI50 was > 93.8 µM (inactive) in the test on OVCAR-8; > 91.8 µM (inactive) in the test with SK-MEL-2; 45.9 µM (inactive) with RXF 393; > 100 µM (inactive) with COLO 205; > 100 µM (inactive) in the test on MDA-MB-231; 28.1 µM (inactive) in the test on SK-MEL-5. Also, the GI50 with SNB-19 was 69.7 µM (inactive).
Regarding `O=C(NCP(=O)(c1ccccc1)c1ccccc1)OCc1ccccc1`, the GI50 was more than 100 µM in the test on HCT-15; > 100 µM (inactive) in the test on EKVX; > 100 µM (inactive) with TK-10; > 100 µM (inactive) in the test on OVCAR-5; 37.2 µM (inactive) with 786-0; > 100 µM (inactive) in the test with Malme-3M. Also, the GI50 is > 100 µM (inactive) with HT-29; > 100 µM (inactive) in the test on NCI-H460; > 100 µM (inactive) in the test on HCT-116; 73.5 µM (inactive) with NCI/ADR-RES; > 100 µM (inactive) with RPMI-8226; > 100 µM (inactive) with OVCAR-8. Also, the GI50 with CCRF-CEM was > 100 µM (inactive); with SK-MEL-2, > 100 µM (inactive); with RXF 393 it was 82.6 µM (inactive); in the test with COLO 205, > 100 µM (inactive); in the test with MDA-MB-231, 60.1 µM (inactive); in the test with SK-MEL-5, > 100 µM (inactive). Moreover, the GI50 with SNB-19 is > 100 µM (inactive).
In the case of `Cc1c(C)c(S(=O)(=O)N(CCCCCON)OCCCN)c(C)c2c1OC(C)(C)CC2`, the GI50 with HCT-15 is 15.2 µM; in the test with EKVX, 12.3 µM (inactive); with TK-10 it was 14.3 µM (inactive); with OVCAR-5, 14.9 µM (inactive); with 786-0, 16.7 µM (inactive); with Malme-3M it was 14.3 µM (inactive). Besides, the GI50 with UACC-257 is 15.9 µM (inactive); with HT-29 it was 9.89 µM (inactive); in the test on NCI-H460, 9.93 µM (inactive); in the test on HCT-116, 14.8 µM (inactive); in the test with NCI/ADR-RES, 15.9 µM (inactive); in the test with RPMI-8226 it was 9.29 µM (inactive). Further, the GI50 is 11 µM (inactive) with OVCAR-8; 15.4 µM (inactive) in the test on SK-MEL-2; 12.3 µM (inactive) in the test on RXF 393; 3.48 µM (inactive) with COLO 205; 15.7 µM (inactive) in the test with MDA-MB-231; 15.9 µM (inactive) in the test on SK-MEL-5. Besides, the GI50 in the test with SNB-19 is 15.5 µM (inactive).
Regarding `CCC(=O)NCC1CCCN2CCCCC12` (stereo not drawn), the GI50 in the test on HCT-15 is more than 100 µM; with EKVX, > 100 µM (inactive); in the test on TK-10 it was > 100 µM (inactive); in the test with 786-0 it was > 100 µM (inactive); with Malme-3M it was 44.7 µM (inactive); in the test with UACC-257, > 100 µM (inactive). For the same compound, the GI50 in the test on HT-29, in the test on NCI-H460, with HCT-116, with NCI/ADR-RES, with RPMI-8226 and with OVCAR-8 was > 100 µM (inactive) in each case. Moreover, the GI50 with CCRF-CEM, with SK-MEL-2, in the test on RXF 393, with COLO 205, in the test on MDA-MB-231 and in the test on SK-MEL-5 was > 100 µM (inactive) each time. Besides, the GI50 with SNB-19 was > 100 µM (inactive).
For the compound `NCC(=O)Nc1ccc(S(=O)(=O)O)c2cc(S(=O)(=O)O)cc(S(=O)(=O)O)c12`, the GI50 is more than 100 µM with HCT-15; > 100 µM (inactive) in the test on EKVX; > 100 µM (inactive) in the test on TK-10; > 100 µM (inactive) in the test on OVCAR-5; > 100 µM (inactive) in the test on 786-0; > 100 µM (inactive) with Malme-3M. Further, the GI50 in the test on UACC-257, in the test on HT-29, in the test with HCT-116, in the test on NCI/ADR-RES, in the test with RPMI-8226 and with OVCAR-8 was > 100 µM (inactive) throughout. For the same compound, the GI50 in the test on CCRF-CEM, in the test on SK-MEL-2, in the test with RXF 393, in the test with COLO 205, in the test with MDA-MB-231 and in the test with SK-MEL-5 was > 100 µM (inactive) in each case. Also, in the test on SNB-19, the GI50 is > 100 µM (inactive).
As to `CC(NC(=O)C(Cc1ccccc1)NC(=O)C(Cc1ccccc1)NC(=O)OC(C)(C)C)C(=O)OCc1ccccc1` (stereo not drawn) (Boc-Phe-Phe-Ala-OBn; configuration not given here), the GI50 with EKVX is > 100 µM (inactive); in the test with TK-10, 76.2 µM (inactive); in the test on OVCAR-5, > 100 µM (inactive); in the test with 786-0, > 100 µM (inactive); in the test with Malme-3M, 93.1 µM (inactive); in the test on UACC-257, > 100 µM (inactive). Moreover, the GI50 is 75.9 µM (inactive) with HT-29; > 100 µM (inactive) with NCI-H460; 76.9 µM (inactive) with HCT-116; > 100 µM (inactive) in the test with NCI/ADR-RES; 32.3 µM (inactive) with RPMI-8226; > 100 µM (inactive) with OVCAR-8. In addition, the GI50 in the test with CCRF-CEM was 58.3 µM (inactive); with SK-MEL-2, > 100 µM (inactive); in the test on RXF 393, 30.7 µM (inactive); in the test with COLO 205 it was 65.3 µM (inactive); in the test with MDA-MB-231, > 100 µM (inactive); in the test with SK-MEL-5, 94.2 µM (inactive).
